# Experimental data published in patent US9226501B2, “Pesticidal compositions and processes related thereto” (Dow AgroSciences LLC, priority 2012, dated 2016).
# Experiments:
# [1] = system: Beet Armyworm (BAW) (spodoptera exigua); test: Bioassay on beet armyworm (BAW), 128-well diet tray assay; assay type: in vivo; conditions: for BAW Rating: Table 3, beet armyworm; for pest or weed control at 50 µg/cm2: Spodoptera exigua, 168 h, % mortality, second instar larvae, 50 μg/cm^2 on artificial diet, five to seven days, 25° C., read-out: BAW Rating
# Protocol: (§1) Certain molecules disclosed in this document were tested against BAW, CEW and CL using procedures described in the following examples. In the reporting of the results, the “BAW & CEW & CL Rating Table” was used (See Table Section).
# Bioassays on BAW were conducted using a 128-well diet tray assay. One to five second instar BAW larvae were placed in each well (3 mL) of the diet tray that had been previously filled with 1 mL of artificial diet to which 50 μg/cm^2 of the test compound (dissolved in 50 μL of 90:10 acetone-water mixture) had been applied (to each of eight wells) and then allowed to dry. Trays were covered with a clear self-adhesive cover, and held at 25° C., 14:10 light-dark for five to seven days. Percent mortality was recorded for the larvae in each well; activity in the eight wells was then averaged. The results are indicated in the tables entitled “Table 3: Assay Results Part 1” and “Table 4: Assay Results Part 2” (See Table Section).
# [2] = system: Cabbage Looper (CL) (Trichoplusia ni); test: Bioassay on cabbage looper (CL), 128-well diet tray assay; assay type: in vivo; conditions: for pest or weed control at 50 µg/cm2: Trichoplusia ni, 168 h, % mortality, second instar larvae, 50 μg/cm^2 on artificial diet, five to seven days, 25° C., read-out: CL Rating; for CL Rating: Table 5, prophetic compounds subsequently exemplified, cabbage looper
# Protocol: as §1
# Bioassays on CL were conducted using a 128-well diet tray assay. One to five second instar CL larvae were placed in each well (3 mL) of the diet tray that had been previously filled with 1 mL of artificial diet to which 50 μg/cm^2 of the test compound (dissolved in 50 μL of 90:10 acetone-water mixture) had been applied (to each of eight wells) and then allowed to dry. Trays were covered with a clear self-adhesive cover, and held at 25° C., 14:10 light-dark for five to seven days. Percent mortality was recorded for the larvae in each well; activity in the eight wells was then averaged. The results are indicated in the table entitled “Table 4: Assay Results Part 2” (See Table Section).
SMILES,BAW Rating [1],pest or weed control at 50 µg/cm2 [1],pest or weed control at 50 µg/cm2 [2],CL Rating [2]
"O=C(NCC(=S)NCC(F)(F)F)c1ccc(/C=C/C(c2cc(Cl)c(Cl)c(Cl)c2)C(F)(F)F)cc1Br (centres unmarked) [AC92, (E)-2-Bromo-N-(2-thioxo-2-((2,2,2-trifluoroethyl)amino)ethyl)-4-(4,4,4-trifluoro-3-(3,4,5-trichlorophenyl)but-1-en-1-yl)benzamide]",A (50-100),,,
N#CCN1CCC(NC(=O)c2ccc(/C=C/C(c3cc(Cl)c(Cl)c(Cl)c3)C(F)(F)F)cc2Br)CC1 (centres unmarked) [AC107],B (More than 0-Less than 50),,,
"O=C(NC1CCN(C2COC2)CC1)c1ccc(/C=C/C(c2cc(Cl)c(Cl)c(Cl)c2)C(F)(F)F)cc1Br (centres unmarked) [AC108, (E)-2-Bromo-N-(1-(oxetan-3-yl)piperidin-4-yl)-4-(4,4,4-trifluoro-3-(3,4,5-trichlorophenyl)but-1-en-1-yl)benzamide]",B (More than 0-Less than 50),,,
O=C(NCCc1ccc(Cl)nc1)c1ccc(/C=C/C(c2cc(Cl)c(Cl)c(Cl)c2)C(F)(F)F)cc1Br (centres unmarked) [AC113],B (More than 0-Less than 50),,,
O=C(NCc1ccc(/C=C/C(c2cc(Cl)c(Cl)c(Cl)c2)C(F)(F)F)cc1C(F)(F)F)c1cccnc1 (centres unmarked) [CC23],A (50-100),,,
"CCNC(=O)NCc1ccc(/C=C/C(c2cc(Cl)cc(Cl)c2)C(F)(F)F)cc1Cl (centres unmarked) [CC31, (E)-1-(2-Chloro-4-(3-(3,5-dichlorophenyl)-4,4,4-trifluorobut-1-en-1-yl)benzyl)-3-ethylurea]",B (More than 0-Less than 50),,,
FC(F)(F)C(/C=C/c1ccc(-n2cncn2)cc1)c1ccccc1 (centres unmarked) [DC3],B (More than 0-Less than 50),,,
O=C(CNC(=O)c1ccc(/C=C/C(c2cc(Cl)c(Cl)c(Cl)c2)C(F)(F)F)cc1Cl)NCC(F)F (centres unmarked) [FA1],,50 to 100%,50 to 100%,
Cc1cc(/C=C/C(c2cc(Cl)c(Cl)c(Cl)c2)C(F)(F)F)ccc1C(=O)NCC(=O)NCC(F)F (centres unmarked) [FA2],,50 to 100%,50 to 100%,
O=C(CNC(=O)c1ccc(/C=C/C(c2cc(Cl)c(Cl)c(Cl)c2)C(F)(F)F)cc1Br)NCC(F)F (centres unmarked) [FA3],,50 to 100%,50 to 100%,
O=C(CNC(=O)c1cc(O)c(/C=C/C(c2cc(Cl)c(Cl)c(Cl)c2)C(F)(F)F)cc1Cl)NCC(F)(F)F (centres unmarked) [FA4],,50 to 100%,50 to 100%,
COc1cc(C(=O)NCC(=O)NCC(F)(F)F)c(Cl)cc1/C=C/C(c1cc(Cl)c(Cl)c(Cl)c1)C(F)(F)F (centres unmarked) [FA5],,50 to 100%,50 to 100%,
Nc1cc(/C=C/C(c2cc(Cl)c(F)c(Cl)c2)C(F)(F)F)ccc1C(=O)NCC(=O)NCC(F)(F)F (centres unmarked) [FA6],,50 to 100%,50 to 100%,
O=C(CNC(=O)c1ccc(/C=C/C(c2cc(Cl)c(Cl)c(Cl)c2)C(F)(F)F)cc1Br)NCCC(F)(F)F (centres unmarked) [FA7],,50 to 100%,50 to 100%,
COc1c(F)cc(C(/C=C/c2ccc(C(=O)NCC(=O)NCC(F)(F)F)c(Br)c2)C(F)(F)F)cc1F (centres unmarked) [FA8],,0 to 50%,50 to 100%,
CC(C)(NC(=O)c1ccc(/C=C/C(c2cc(Cl)c(Cl)c(Cl)c2)C(F)(F)F)cc1Cl)C(=S)NCC(F)(F)F (centres unmarked) [FA9],,50 to 100%,50 to 100%,
CC(C)(NC(=S)c1ccc(/C=C/C(c2cc(Cl)c(Cl)c(Cl)c2)C(F)(F)F)cc1Cl)C(=S)NCC(F)(F)F (centres unmarked) [FA10],,0 to 50%,0 to 50%,
CC(C)(NC(=O)c1ccc(/C=C/C(c2cc(Cl)c(Cl)c(Cl)c2)C(F)(F)F)cc1Br)C(=S)NCC(F)(F)F (centres unmarked) [FA11],,0 to 50%,50 to 100%,
CC(C)(NC(=O)c1ccc(/C=C/C(c2cc(Cl)c(Cl)c(Cl)c2)C(F)(F)F)cc1C(F)(F)F)C(=S)NCC(F)(F)F (centres unmarked) [FA12],,50 to 100%,50 to 100%,

SMILES,BAW Rating [1],pest or weed control at 50 µg/cm2 [1],pest or weed control at 50 µg/cm2 [2],CL Rating [2]
O=C(CNC(=O)c1ccc(/C=C/C(c2cc(Cl)c(O)c(Cl)c2)C(F)(F)F)cc1Br)NCC(F)(F)F (centres unmarked) [FA13],,,50 to 100%,
CC(C)(NC(=O)c1ccc(/C=C/C(c2cc(Cl)c(Cl)c(Cl)c2)C(F)(F)F)cc1Br)C(=O)NCC#N (centres unmarked) [FA14],,50 to 100%,50 to 100%,
CC(C)(C)CNC(=O)C(C)(C)NC(=O)c1ccc(/C=C/C(c2cc(Cl)c(Cl)c(Cl)c2)C(F)(F)F)cc1Br (centres unmarked) [FA15],,50 to 100%,50 to 100%,
C=Cc1cc(/C=C/C(c2cc(Cl)c(Cl)c(Cl)c2)C(F)(F)F)ccc1C(=O)N[C@H](C)C(=O)NCC(F)(F)F (some centres unmarked) [FA17],,50 to 100%,50 to 100%,
C=Cc1cc(/C=C/C(c2cc(Cl)c(Cl)c(Cl)c2)C(F)(F)F)ccc1C(=O)NCC(=O)NCC(F)(F)F (centres unmarked) [FA18],,50 to 100%,50 to 100%,
CCC[C@@H](NC(=O)c1ccc(/C=C/C(c2cc(Cl)c(Cl)c(Cl)c2)C(F)(F)F)cc1Br)C(=O)NCC(F)(F)F (some centres unmarked) [FA19],,50 to 100%,50 to 100%,
Cc1cc(C(/C=C/c2ccc(C(=O)N[C@H](C)C(=O)NCC(F)(F)F)c(C(F)(F)F)c2)C(F)(F)F)cc(Cl)c1Cl (some centres unmarked) [FA20],,50 to 100%,50 to 100%,
C[C@@H](NC(=O)c1ccc(/C=C/C(c2cc(Cl)c(Br)c(Cl)c2)C(F)(F)F)cc1C(F)(F)F)C(=O)NCC(F)(F)F (some centres unmarked) [FA21],,50 to 100%,50 to 100%,
C[C@@H](NC(=O)c1ccc(/C=C/C(c2cc(Cl)c(Br)c(Cl)c2)C(F)(F)F)cc1Br)C(=O)NCC(F)(F)F (some centres unmarked) [FA22],,50 to 100%,50 to 100%,
CC(F)(F)CNC(=O)C(C)(C)NC(=O)c1ccc(/C=C/C(c2cc(Cl)c(Cl)c(Cl)c2)C(F)(F)F)cc1Br (centres unmarked) [FA23],,50 to 100%,50 to 100%,
O=C(CNC(=O)c1ccc(/C=C/C(c2cc(Cl)c(Cl)c(Cl)c2)C(F)(F)F)cc1I)NCC(F)(F)F (centres unmarked) [FA24],,50 to 100%,50 to 100%,
CCC[C@@H](NC(=O)c1ccc(/C=C/C(c2cc(Cl)c(Cl)c(Cl)c2)C(F)(F)F)cc1C)C(=O)NCC(F)(F)F (some centres unmarked) [FA25],,50 to 100%,50 to 100%,
C[C@@H](NC(=O)c1ccc(/C=C/C(c2cc(Br)c(Cl)c(Br)c2)C(F)(F)F)cc1Br)C(=O)NCC(F)(F)F (some centres unmarked) [FA26],,50 to 100%,50 to 100%,
C[C@@H](NC(=O)c1ccc(/C=C/C(c2cc(Br)c(Cl)c(Br)c2)C(F)(F)F)cc1C(F)(F)F)C(=O)NCC(F)(F)F (some centres unmarked) [FA27],,50 to 100%,50 to 100%,
CS(=O)(=O)c1cc(/C=C/C(c2cc(Cl)c(F)c(Cl)c2)C(F)(F)F)ccc1C(=O)NCC(=O)NCC(F)(F)F (centres unmarked) [FA34],,,50 to 100%,
N#Cc1c(F)cc(C(/C=C/c2ccc(C(=O)NCC(=O)NCC(F)(F)F)c(Br)c2)C(F)(F)F)cc1F (centres unmarked) [P2],,,,A (50-100)
C[C@@H](NC(=O)c1ccc(/C=C/C(c2cc(F)cc(Br)c2)C(F)(F)F)cc1Br)C(=O)NCC(F)(F)F (some centres unmarked) [P298],,,,A (50-100)
O=C(CCNC(=O)c1ccc(/C=C/C(c2cc(Cl)c(Cl)c(Cl)c2)C(F)(F)F)cc1C(F)(F)F)NCC(F)(F)F (centres unmarked) [P1640],,,,A (50-100)
